The assay concerns primary neuronal cultures from embryonic rat brains. The assay is described as follows: Rat oscillation assay (FLIPR, neuronal calcium oscillations). It is filed as cell-based. The note with it: Rattus norvegicus. In short, it runs like this:
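Cortical neurons from E18 Wistar rat embryos, cultured 8–10 days at high density, loaded with 1 μM Fluo-8 AM; calcium oscillations recorded by FLIPR once per second in Mg-free HBSS with 2 mM CaCl2, 20 mM HEPES, pH 7.4. Two acquisitions ("Acute", 500 sec, compound added at 250 sec; "20 min"), ± Kv7 blocker XE-991.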

Setting [1] is: 20 min, AUC of fluorescence measured 20 min after compound addition, read-out: FLIPR: IC50 [nM] 20 min.
The mark [2] stands for this setting: Acute phase, ratio of AUC fluorescence before and after compound addition, read-out: FLIPR: IC50 [nM] acute.

Read-outs that look alike come from different tables or passages of the source.

A word on the IC50: it is the concentration at which inhibition is half-maximal. On to `O=C(NC1CC2(CCC2)C1)N1CCc2c(ccnc2OCC(F)(F)F)C1` [Example 53, 5-(2,2,2-Trifluoro-ethoxy)-3,4-dihydro-1H-[2,6]naphthyridine-2-carboxylic acid spiro[3.3]hept-2-ylamide], for which the IC50 is, setting by setting: under setting [1], 226 nM; under setting [2], 185 nM.

On to `CC(NC(=O)NC1CC2(CCC2)C1)c1ccnc(OC(C)C(F)(F)F)c1` (stereo not shown) [Example 101, 1-(Spiro[3.3]heptan-2-yl)-3-(1-(2-((1,1,1-trifluoropropan-2-yl)oxy)pyridin-4-yl)ethyl)urea], for which the IC50 turned out to be 1.6 nM under setting [1] and 2.4 nM under setting [2].

For the molecule `CS(=O)(=O)CC(NC(=O)NC1CC2(CCC2)C1)c1cccc(C(F)(F)F)c1` (racemic) [Example 69, (±)-1-[2-Methanesulfonyl-1-(3-trifluoromethyl-phenyl)-ethyl]-3-spiro[3.3]hept-2-yl-urea], the IC50 under setting [1] turned out to be 83 nM and the IC50 under setting [2] came to 95 nM.

Regarding `Cc1c(OCC(F)(F)F)cccc1C(C)NC(=O)NC1CC2(CCC2)C1` (racemic) [Example 29, (±)-1-{1-[2-Methyl-3-(2,2,2-trifluoro-ethoxy)-phenyl]-ethyl}-3-spiro[3.3]hept-2-yl-urea], the IC50 was 253 nM under setting [1] and 452 nM under setting [2].

Regarding `CC(NC(=O)NC1CC2(CCC2)C1)c1cccc(OCC(F)(F)F)c1Cl` (racemic) [Example 30, (±)-1-{1-[2-Chloro-3-(2,2,2-trifluoro-ethoxy)-phenyl]-ethyl}-3-spiro[3.3]hept-2-yl-urea], the IC50 was determined as 269 nM under setting [1] and 252 nM under setting [2].

As to `C[C@H](NC(=O)NC1CC2(CCC2)C1)c1cccc(OC(F)F)c1` (single isomer, unassigned) [Example 173], the IC50 reads like this: under setting [1], 11 nM; under setting [2], 7 nM.

Consider `CC(Oc1cc(CNC(=O)NC2CC3(CC3)C2)ncn1)C(F)(F)F` (racemic) [Example 120, (±)-1-Spiro[2.3]hex-5-yl-3-[6-(2,2,2-trifluoro-1-methyl-ethoxy)-pyrimidin-4-ylmethyl]-urea], for which the IC50 reads like this: under setting [1], 151 nM; under setting [2], 136 nM.

For `N#CC(NC(=O)NC1CC2(CCC2)C1)c1cccc(C(F)(F)F)c1` (stereo not shown) [Example 55, 1-[Cyano-(3-trifluoromethyl-phenyl)-methyl]-3-spiro[3.3]hept-2-yl-urea], the IC50 is 48 nM under setting [1] and 67 nM under setting [2].

Regarding `O=C(NCc1cccc(C(F)(F)F)c1Cl)NC1CC2(CC2)C1` [Example 150, 1-(2-Chloro-3-trifluoromethyl-benzyl)-3-spiro[2.3]hex-5-yl-urea], the IC50 runs as follows: under setting [1], 1160 nM; under setting [2], 1080 nM.

On to `CC(NC(=O)NC1CC2(CC2)C1)c1cccc(OCC(F)(F)F)c1F` (racemic) [Example 131, (±)-1-{1-[2-Fluoro-3-(2,2,2-trifluoro-ethoxy)-phenyl]-ethyl}-3-spiro[2.3]hex-5-yl-urea], for which the IC50 reads like this: under setting [1], 52 nM; under setting [2], 29 nM.

As for `NC(=O)CCC(NC(=O)NC1CC2(CCC2)C1)c1cccc(C(F)(F)F)c1` (racemic) [Example 79, (±)-4-(3-Spiro[3.3]hept-2-yl-ureido)-4-(3-trifluoromethyl-phenyl)-butyramide], the IC50 by setting is: under setting [1], 634 nM; under setting [2], 599 nM.

As to `CS(=O)(=O)CC(NC(=O)NC1CC2(CCC2)C1)c1cccc(OC(F)(F)F)c1` (racemic) [Example 64, (±)-1-[2-Methanesulfonyl-1-(3-trifluoromethoxy-phenyl)-ethyl]-3-spiro[3.3]hept-2-yl-urea], the IC50 runs as follows: under setting [1], 47 nM; under setting [2], 44 nM.

On to `O=C(NC1CC2(CCC2)C1)N[C@H](c1cccc(C(F)(F)F)c1)c1nc[nH]n1` (single isomer, unassigned) [Example 179], for which the IC50 by setting is: under setting [1], 13 nM; under setting [2], 24 nM.

Turning to `O=C(NC1CC2(CCC2)C1)NC(CCO)c1cccc(C(F)(F)F)c1` (racemic) [Example 74, (±)-1-[3-Hydroxy-1-(3-trifluoromethyl-phenyl)-propyl]-3-spiro[3.3]hept-2-yl-urea], the IC50 came to 30 nM under setting [1] and 27 nM under setting [2].

On to `O=C(NC1CC2(CCC2)C1)NC(CCO)c1cc(OCC(F)(F)F)ncn1` (racemic) [Example 85, (±)-1-{3-Hydroxy-1-[6-(2,2,2-trifluoro-ethoxy)-pyrimidin-4-yl]-propyl}-3-spiro[3.3]hept-2-yl-urea], for which the IC50 was determined as 146 nM under setting [1] and 157 nM under setting [2].

With `CC(NC(=O)NC1CC2(CC2)C1)c1cc(OCC(F)(F)F)ncn1` (racemic) [Example 144, (±)-1-Spiro[2.3]hex-5-yl-3-{1-[6-(2,2,2-trifluoro-ethoxy)-pyrimidin-4-yl]-ethyl}-urea], the IC50 by setting is: under setting [1], 119 nM; under setting [2], 96 nM.

On to `O=C(NC1CC2(CCC2)C1)NC(c1cccc(C(F)(F)F)c1)c1c[nH]nn1` (racemic) [Example 162, (±)-1-Spiro[3.3]hept-2-yl-3-[(1H-[1,2,3]triazol-4-yl)-(3-trifluoromethyl-phenyl)-methyl]-urea], for which the IC50 by setting is: under setting [1], 124 nM; under setting [2], 120 nM.

Turning to `O=C(NCc1cccc(OC(F)(F)F)c1F)NC1CC2(CCC2)C1` [Example 8, 1-(2-Fluoro-3-trifluoromethoxy-benzyl)-3-spiro[3.3]hept-2-yl-urea], the IC50 by setting is: under setting [1], 35 nM; under setting [2], 78 nM.

For `C[C@H](NC(=O)NC1CC2(CC2)C1)c1ccnc(OC(F)F)c1` (single isomer, unassigned) [Example 189], the IC50 amounted to 196 nM under setting [1] and 221 nM under setting [2].

On to `COCC(NC(=O)NC1CC2(CCC2)C1)c1cc(OCC(F)(F)F)ncn1` (racemic) [Example 78, (±)-1-{2-Methoxy-1-[6-(2,2,2-trifluoro-ethoxy)-pyrimidin-4-yl]-ethyl}-3-spiro[3.3]hept-2-yl-urea], for which the IC50 under setting [1] turned out to be 7.2 nM and the IC50 under setting [2] was found to be 9.4 nM.

Turning to `COCC(NC(=O)NC1CC2(CCC2)C1)c1cccc(C(F)(F)F)c1` (racemic) [Example 9, (±)-1-[2-Methoxy-1-(3-trifluoromethyl-phenyl)-ethyl]-3-spiro[3.3]hept-2-yl-urea], the IC50 by setting is: under setting [1], 2.1 nM; under setting [2], 5.1 nM.

For `C[C@@H](NC(=O)NC1CC2(CCC2)C1)c1cc(OCC(F)(F)F)ncn1` (single isomer, unassigned) [Example 183], the IC50 was found to be 1990 nM under setting [1] and 1420 nM under setting [2].

For the molecule `O=C(NC1CC2(CCC2)C1)N[C@H](c1cccc(C(F)(F)F)c1)C(F)(F)F` (single isomer, unassigned) [Example 178], the IC50 under setting [1] was 11 nM and the IC50 under setting [2] came out at 16 nM.

With `CC(C)OCC(NC(=O)NC1CC2(CCC2)C1)c1cccc(C(F)(F)F)c1` (racemic) [Example 72, (±)-1-[2-Isopropoxy-1-(3-trifluoromethyl-phenyl)-ethyl]-3-spiro[3.3]hept-2-yl-urea], the IC50 reads like this: under setting [1], 238 nM; under setting [2], 266 nM.

With `CC(NC(=O)NC1CC2(CC2)C1)c1ccnc(OC(F)F)c1` (racemic) [Example 139, (±)-1-[1-(2-Difluoromethoxy-pyridin-4-yl)-ethyl]-3-spiro[2.3]hex-5-yl-urea], the IC50 under setting [1] was 365 nM and the IC50 under setting [2] is 186 nM.

Take `O=C(NC1CC2(CCC2)C1)NC1(c2cccc(OC(F)F)c2)CC1` [Example 7, 1-[1-(3-Difluoromethoxy-phenyl)-cyclopropyl]-3-spiro[3.3]hept-2-yl-urea]: the IC50 was determined as 142 nM under setting [1] and 85 nM under setting [2].

Source of the values: US20230136562A1, “SPIROUREA DERIVATIVES” (Idorsia Pharmaceuticals Ltd, priority 2020, published 2023).
